Read-outs that look alike come from different tables or passages of the source.
Experiments:
[1] = tested on: IP implanted D16 melanoma; conditions: cited from earlier work
[2] = Oral feasibility PK in dogs (paclitaxel capsules, plasma HPLC); assay type: in vivo; conditions: for Cmax / Tmax: dog, plasma; for Tmax: read-out: tmax (time of maximum concentration observed)
Experimental: The formulation was as follows: […]
and was hand filled into single 0 hard gelatin capsules to a dose of approximately 34 mg/capsule.
Capsules were inserted into the esophagus and followed with a brief squirt of water and the animals held until swallowing was observed.

[3] = tested on: human X-1 mammary tumor xenograft; conditions: cited from earlier work
[4] = Solubilization of paclitaxel in the carrier and appearance of the undiluted formulation; assay type: physicochemical
Experimental: 4.040 g of Vitamin E-TPGS (Eastman Chemical Co., Kingsport, Tenn.) was chipped in and weighed into a 20 ml scintillation vial. 0.514 g of dimethylisosorbide (“DMI”; ARLASOLVE® DMI, ICI Surfactants; Wilmington, Del.) was added to the vial followed by heating to melt the Vitamin E-TPGS/DMI mixture. […] The solution began to clarify and dissolution progressed.
Each formulation was prepared in a 20 ml scintillation vial. The vial was initially tared. CREMOPHOR® EL/citric acid blend (10 g CREMOPHOR® EL, 0.020 g citric acid) was weighed into each of eight (8) tared vials. The weight was recorded. Each vial was subsequently tared and the appropriate weight of dimethylisosorbide (DMI) was added. An additional five (5) vials were also prepared without containing the CREMOPHOR® EL/citric acid blend. […] All vials were individually tared and the appropriate weight of Vitamin E-TPGS was added. At this point, all vials were placed in a 40° C. incubator to liquefy the Vitamin E-TPGS within each sample. After the solutions had liquefied, two samples were removed at a time and placed on a stir/hotplate. One-half inch egg shaped stir bars were added to each scintillation vial.
Large clumps were broken apart easily with a stainless steel spatula. […] This same procedure was repeated for each of the samples.
1.016 g of ethyl alcohol was transferred to a 20 ml scintillation vial containing a stir bar. […]

[5] = male beagle FJF-8, oral, 3 capsules Vitamin E TPGS/DMI formulation, 7.66 mg/kg
[6] = male beagle IOF-8, oral, 3 capsules Vitamin E TPGS/DMI formulation, 6.88 mg/kg

CC(=O)O[C@H]1C(=O)[C@@]2(C)[C@H]([C@H](OC(=O)c3ccccc3)[C@]3(O)C[C@H](OC(=O)[C@H](O)[C@@H](NC(=O)c4ccccc4)c4ccccc4)C(C)=C1C3(C)C)[C@]1(OC(C)=O)CO[C@@H]1C[C@@H]2O [paclitaxel]
cytotoxic activity [1]: good cytotoxic activity | Cmax [2, 5]: 108 ng/mL | Tmax [2, 5]: 1 h | Cmax [2, 6]: 92 ng/mL | Tmax [2, 6]: 0.5 h | tlast (time of last nonzero concentration observed) [2, 5]: 8 h | tlast (time of last nonzero concentration observed) [2, 6]: 6 h | tlast (time of last nonzero concentration observed) ([2]; male beagle OEF-8, oral, 1 capsule Vitamin E TPGS/DMI formulation, 3.27 mg/kg): 8 h | tlast (time of last nonzero concentration observed) ([2]; male beagle OLF-8, oral, 3 capsules Vitamin E TPGS/DMI formulation, 11.14 mg/kg): 8 h | tlast (time of last nonzero concentration observed) ([2]; male beagle PXF-8, oral, 1 capsule Vitamin E TPGS/DMI formulation, 3.23 mg/kg): 12 h | Cmax ([2]; male, beagle, po, 3.23 mg/kg): 17 ng/mL | Tmax ([2]; male, beagle, po, 3.23 mg/kg): 1 h | Cmax ([2]; male, beagle, po, 3.27 mg/kg): 97 ng/mL | Tmax ([2]; male, beagle, po, 3.27 mg/kg): 1 h | Cmax ([2]; male, beagle, po, 11.14 mg/kg): 63 ng/mL | Tmax ([2]; male, beagle, po, 11.14 mg/kg): 1 h | detectable plasma levels of intact drug following dosing ([2]; six male beagles, oral capsules, 3 to 11 mg/kg, plasma to 48 hours postdose): Five of the six animals had detectable levels of intact drug | cytotoxic activity [3]: good cytotoxic activity | dissolution of paclitaxel in Methoxy PEG 550 alone ([4]; 0.050 g in 0.450 g (Table 3)): eventually dissolved | dissolution of paclitaxel in Methoxy PEG 350 alone ([4]; 0.050 g in 0.450 g and 0.100 g in 0.900 g (Table 3)): quickly dissolved

— patent US20010029264A1, “Novel methods and compositions for delivery of taxanes” (priority 1998, published 2001)
